Earlier results as cited in patent publication US20260174720A1, “NERVONIC ACID COMPOSITION FOR IMPROVING MEMORY-BASED LEARNING FUNCTION AND A PREPARATION METHOD THEREOF” (Guangzhou Decade Nutrition Technology Co., Ltd., priority 2024, published 2026).

solubility in alcohols such as methanol, ethanol: soluble in alcohols
solubility in water (room temperature): insoluble in water
SMILES: CCCCCCCC/C=C\CCCCCCCCCCCCCC(=O)O [Nervonic acid, cis-15-Tetracosenic Acid]
